Structures can show the parent of a compound that is named as a salt. Where two headings read alike, the source gives them in different places.
Key:
[1] = cited from earlier work; for vasodilatory activity: earlier patents and literature; for pharmacological activity as previously considered: up to the present, in the pharmacological field, earlier literature
[2] = pharmacological study: stimulation or protection of cerebral functions; type: in vivo; conditions: thorough pharmacological study
Experimental: The stimulating or protecting activities have been shown particularly by the test of the mnesic retention of exploratory activity carried out in accordance with the following method: in an ACTIMETRE APELAB apparatus (BOISSIER and SIMON, Arch. Inter. Pharmacodyn. 158, 212, (1965), the exploratory activity of SWISS-WEBSTER male mice was measured for 5 minutes, then the animals were given an intraperitoneal injection or oral administration of the derivatives of formula (I), the salts thereof or of physiological serum. After a week, the exploratory activity of the treated animals is again measured and the effect of the mnesic retention is measured by an habituation, i.e., by a statistically significant reduction (t of STUDENT in paired groups) of the exploratory activity.

[3] = approximate acute toxicity (method of MILLER and TAINTER); conditions: in vivo; for mortality: read-out: lethality
Experimental: The approximate acute toxicity is determined according to the method described by MILLER and TAINTER in Proc. Soc. Exp. Biol. Med. 57, 261, (1944).

[4] = test of the mnesic retention of exploratory activity (habituation); type: in vivo, SWISS-WEBSTER male mice; conditions: Mus musculus, ip, 168 h, read-out: % of the diminution of the exploratory activity; for inhibition in vivo at 10 mg/kg: dose 10 mg/kg i.p.
[5] = dose 3 mg/kg i.p., retest after one week, mice

## CCOC(=O)CN1CCN(C(=O)/C=C/c2cc(OC)c(OC)c(OC)c2)CC1
[1]
  vasodilatory activity: peripheral and coronary vasodilators

## COc1cc(/C=C/C(=O)N2CCN(CC(=O)N3CCCC3)CC2)cc(OC)c1OC
[1]
  vasodilatory activity: peripheral and coronary vasodilators

## COc1cc(/C=C/C(=O)N2CCN(CC(=O)O)CC2)cc(OC)c1OC [Code Number 71, trans 1-(3,4,5-trimethoxy)cinnamoyl 4-hydroxycarbonylmethyl piperazine, hydrochloride]
[1]; listed as Ia, hydrochloride
  pharmacological activity as previously considered: inactive
[2]
  activity in the stimulation or protection of cerebral functions: important activities in the stimulation or protection of cerebral functions

## COc1cc(/C=C\C(=O)N2CCN(CC(=O)N3CCCC3)CC2)cc(OC)c1OC [Code Number 72, cis 1-(3,4,5-trimethoxy)cinnamoyl 4-pyrrolidinocarbonylmethyl)piperazine, oxalate]
[1]; listed as Ib
  pharmacological activity as previously considered: inactive
[2]
  activity in the stimulation or protection of cerebral functions: important activities in the stimulation or protection of cerebral functions

## COc1cc(/C=C/C(=O)N2CCN(CC(=O)NC(C)C)CC2)cc(OC)c1OC [compound 65]
[3]; iv
  LD50: 475 mg/kg
[4]; retest after one week, mice
  inhibition in vivo at 10 mg/kg: 17.9%

## COc1cc(/C=C/C(=O)N2CCN(CC(=O)N3CCCCC3)CC2)cc(OC)c1OC [compound 66]
[3]; po
  LD50: 2250 mg/kg
[4]; [5]
  inhibition in vivo at 3 mg/kg: 35.2%

## COc1cc(/C=C/C(=O)N2CCN(CC(=O)N3CCCCCCC3)CC2)cc(OC)c1OC [compound 67]
[3]; iv
  LD50: 225 mg/kg
[4]; [5]
  inhibition in vivo at 3 mg/kg: 26.4%

## COc1ccc(CCN(C)C(=O)CN2CCN(C(=O)/C=C/c3cc(OC)c(OC)c(OC)c3)CC2)cc1OC [compound 68]
[3]; iv
  LD50: 200 mg/kg
[4]; retest after one week, mice
  inhibition in vivo at 10 mg/kg: 15.8%

## COc1cc(/C=C/C(=O)N2CCN(CC(=O)NC(C)C)CC2)cc(OC)c1O [compound 69]
[3]; po
  LD50: 2000 mg/kg
[3]; po, 2000 mg/kg p.o.
  mortality: 0%
[4]; [5]
  inhibition in vivo at 3 mg/kg: 23.8%

## COc1cc(CCC(=O)N2CCN(CC(=O)NC(C)C)CC2)cc(OC)c1OC [compound 70]
[3]; po
  LD50: 2000 mg/kg
[3]; po, 2000 mg/kg p.o.
  mortality: 0%
[4]; dose 30 mg/kg i.p., retest after one week, mice
  inhibition in vivo at 30 mg/kg: 16.2%

## COc1cc(/C=C/C(=O)N2CCN(CC(=O)O)CC2)cc(OC)c1OC [compound 71]
[3]; po
  LD50: 1000 mg/kg
[3]; po, 1000 mg/kg p.o.
  mortality: 0%
[4]; dose 1 mg/kg i.p., retest after one week, mice
  inhibition in vivo at 1 mg/kg: 31.9%

## COc1cc(/C=C\C(=O)N2CCN(CC(=O)N3CCCC3)CC2)cc(OC)c1OC [compound 72]
[4]
  inhibition in vivo at 3 mg/kg: 21%

## COc1cc(/C=C/C(=O)N2CCN(CC(=O)O)CC2)cc(OC)c1OC [drawing 11]
[1]
  pharmacological activity as previously considered: non-active

## COc1cc(/C=C\C(=O)N2CCN(CC(=O)N3CCCC3)CC2)cc(OC)c1OC [drawing 13]
[1]
  pharmacological activity as previously considered: non-active

## COc1cc(CCC(=O)N2CCN(CC(=O)NC(C)C)CC2)cc(OC)c1OC [drawing 15]
[1]
  vasodilatory activity: peripheral and coronary vasodilators

## COc1cc(/C=C/C(=O)N2CCN(CC(=O)NC(C)C)CC2)cc(OC)c1O [drawing 16]
[1]
  vasodilatory activity: coronary vasodilator
